SMILES strings stand for the structures.

This experiment deals with T1, CRF1 receptors (Homo sapiens, UniProt P34998).
T1 construct: endogenous in cells; host or cells: IMR-32 cells, transformed with 2.5 µM 5'-bromo-2'-deoxyuridine for 10 days; membrane preparation
T1 sequence (P34998 24-415): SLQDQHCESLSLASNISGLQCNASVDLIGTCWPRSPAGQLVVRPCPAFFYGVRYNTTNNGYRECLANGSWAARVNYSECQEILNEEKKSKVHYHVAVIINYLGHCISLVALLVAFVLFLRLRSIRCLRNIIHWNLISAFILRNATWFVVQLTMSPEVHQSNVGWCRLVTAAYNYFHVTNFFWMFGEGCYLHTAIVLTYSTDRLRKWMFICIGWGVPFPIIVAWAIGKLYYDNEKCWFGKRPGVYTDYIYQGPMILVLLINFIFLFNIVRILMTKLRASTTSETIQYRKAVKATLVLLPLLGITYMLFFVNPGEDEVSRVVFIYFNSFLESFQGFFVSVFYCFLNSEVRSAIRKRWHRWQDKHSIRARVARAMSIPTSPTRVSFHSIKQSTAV
In words: CRF1 receptor radioligand binding assay ([125I]-oCRF competition, IMR-32 cell membranes). The conditions noted are these: IMR-32 cell membranes, [125I]-oCRF 100 pM; read-out: Ki (CRF-1R). The method, then:
CRF1 receptor antagonists, by occupying the same receptors, blocks the accessibility of the receptors to CRF, a hypothalamic factor mediating body's responses to physiological and psychological stress. The following radioligand binding assay examines the ability of the antagonists to bind the CRF1 receptors by assessing their ability to compete with binding of CRF to the receptors in cell membrane.
Tissue culture and membrane preparation. IMR-32 cells were grown at 37° C. in 5% CO2 as a monolayer in medium consisting of MEM supplemented with 10% heat-inactivated fetal bovine serum, 0.1 mM nonessential amino acids, 1 mM sodium pyruvate and 2 mM L-glutamine. […] After transformation, cells were rinsed twice with phosphate-buffered saline, and incubated for 10–15 min. at 4° C. in homogenization buffer consisting of 50 mM Tris (pH 7.2), 10 mM MgCl2 and 2 mM EGTA. Cells were transferred from plates to polypropylene tubes (16×100 mm), homogenized and centrifuged at 32,000×g for 15 min. Pellets were resuspended by homogenization in buffer and centrifuged at 32,000×g for 15 min. Pellets were resuspended in homogenization buffer then stored at −80° C. until needed.
Radioligand binding assays. […] The assay buffer consisted of 50 mM Tris (pH 7.2), 10 mM MgCl2, 0.5% BSA, 0.005% Triton X-100, 10 μg/mL aprotinin and 10 μg/mL leupeptin. Assays were stopped by addition of ice-cold wash buffer (50 mM Tris, pH 7.4 and 0.2% BSA). Filtration over glass fiber filters (Whatman GF/B) previously soaked in 50 mM Tris, pH 7.2 and 1% BSA was carried out using a Brandel cell harvester. Filters were washed with 10 mL of ice-cold wash buffer. Non-specific binding was defined with 10 μM oCRF. IC50 values for oCRF and test compounds were calculated by nonlinear regression using a one-site binding curve (GraphPad Prism).
Turning to `CCC=C(CCC)c1c(CC)nc2n1CCN2c1c(C)cc(C)cc1Cl` [Example 50, 1-(2-Chloro-4,6-dimethyl-phenyl)-6-ethyl-5-(1-propyl-but-1-enyl)-2,3-dihydro-1H-imidazo[1,2-a]imidazole], the Ki (commonly a dissociation constant, usually derived from enzyme kinetics or from competition with a known ligand) was < 0.1 µM.

Turning to `CCCN(CC1CC1)C(=O)c1c(CC)nc2n1CCCN2c1c(C)cc(C)cc1C` [Example 54, 2-Ethyl-8-(2,4,6-trimethyl-phenyl)-5,6,7,8-tetrahydro-imidazo[1,2-a]pyrimidine-3-carboxylic acid cyclopropylmethyl-propyl-amide], the inhibition constant Ki was < 10 µM. The value for `CCCN(CC1CC1)C(=O)c1c(C(F)(F)F)nc2n1CCCN2c1c(C)cc(C)cc1C` [Example 55, 2-Trifluoromethyl-8-(2,4,6-trimethyl-phenyl)-5,6,7,8-tetrahydro-imidazo[1,2a]pyrimidine-3-carboxylic acid cyclopropylmethyl-propyl-amide] was < 10 µM; that for `CCCN(CCc1ccccc1)C(=O)c1c(C)nc2n1CCCN2c1c(C)cc(C)cc1C` [Example 56, 2-Methyl-8-(2,4,6-trimethyl-phenyl)-5,6,7,8-tetrahydro-imidazo[1,2-a]pyrimidine-3-carboxylic acid phenethyl-propyl-amide] was < 10 µM; that for `CCCN(CC1CCC1)C(=O)c1c(C)nc2n1CCCN2c1c(C)cc(C)cc1C` [Example 57, 2-Methyl-8-(2,4,6-trimethyl-phenyl)-5,6,7,8-tetrahydro-imidazo[1,2-a]pyrimidine-3-carboxylic acid cyclobutylmethyl-propyl-amide] was < 10 µM.

For `Cc1cc(C)c(N2CCCn3c2nc(C)c3C(=O)N(CC2CC2)CC2CC2)c(C)c1` [Example 58, 2-Methyl-8-(2,4,6-trimethyl-phenyl)-5,6,7,8-tetrahydro-imidazo[1,2-a]pyrimidine-3-carboxylic acid bis-cyclopropylmethyl-amide], the Ki was < 10 µM. Take `CCCN(Cc1c(C(F)(F)F)nc2n1CCCN2c1c(C)cc(C)cc1C)CC1CC1` [Example 59, Cyclopropylmethyl-propyl-[2-trifluoromethyl-8-(2,4,6-trimethyl-phenyl)-5,6,7,8-tetrahydro-imidazo[1,2-a]pyrimidin-3-ylmethyl]-amine]: the inhibitory constant (Ki) is < 0.1 µM. Next, `Cc1cc(C)c(N2CCCn3c2nc(C(F)(F)F)c3CN2CC=CCC2)c(C)c1` [Example 60, 3-(3,6-Dihydro-2H-pyridin-1-ylmethyl)-2-trifluoromethyl-8-(2,4,6-trimethyl-phenyl)-5,6,7,8-tetrahydro-imidazo[1,2-a]pyrimidine]: < 1 µM; `Cc1cc(C)c(N2CCCn3c2nc(C(F)(F)F)c3CN2CCSCC2)c(C)c1` [Example 61, 3-Thiomorpholin-4-ylmethyl-2-trifluoromethyl-8-(2,4,6-trimethyl-phenyl)-5,6,7,8-tetrahydro-imidazo[1,2-a]pyrimidine]: < 1 µM; `Cc1cc(C)c(N2CCCn3c2nc(C(F)(F)F)c3CN2CCCCC2)c(C)c1` [Example 62, 3-Piperidin-1-ylmethyl-2-trifluoromethyl-8-(2,4,6-trimethyl-phenyl)-5,6,7,8-tetrahydro-imidazo[1,2-a]pyrimidine]: < 1 µM.

Consider `Cc1cc(C)c(N2CCCn3c2nc(C(F)(F)F)c3CN2CCCCC2C)c(C)c1` (stereo not shown) [Example 63, 3-(2-Methyl-piperidin-1-ylmethyl)-2-trifluoromethyl-8-(2,4,6-trimethyl-phenyl)-5,6,7,8-tetrahydro-imidazo[1,2-a]pyrimidine], for which the Ki was < 1 µM.

Regarding `Cc1cc(C)c(N2CCCn3c2nc(C(F)(F)F)c3CN2CCC(C)CC2)c(C)c1` [Example 64, 3-(4-Methyl-piperidin-1-ylmethyl)-2-trifluoromethyl-8-(2,4,6-trimethyl-phenyl)-5,6,7,8-tetrahydro-imidazo[1,2-a]pyrimidine], the Ki is < 1 µM. Next, `Cc1cc(C)c(N2CCCn3c2nc(C(F)(F)F)c3CN(C)Cc2ccccc2)c(C)c1` [Example 65, Benzyl-methyl-[2-trifluoromethyl-8-(2,4,6-trimethyl-phenyl)-5,6,7,8-tetrahydro-imidazo[1,2-a]pyrimidin-3-ylmethyl]-amine]: < 1 µM.

For the compound `Cc1cc(C)c(N2CCCn3c2nc(C(F)(F)F)c3CN(C)CCc2ccccc2)c(C)c1` [Example 66, Methyl-phenethyl-[2-trifluoromethyl-8-(2,4,6-trimethyl-phenyl)-5,6,7,8-tetrahydro-imidazo[1,2-a]pyrimidin-3-ylmethyl]-amine], the Ki was < 1 µM. Next, `C=CCN(CC=C)Cc1c(C(F)(F)F)nc2n1CCCN2c1c(C)cc(C)cc1C` [Example 67, Diallyl-[2-trifluoromethyl-8-(2,4,6-trimethyl-phenyl)-5,6,7,8-tetrahydro-imidazo[1,2-a]pyrimidin-3-ylmethyl]-amine]: < 0.1 µM; `CCCN(CCC)Cc1c(C(F)(F)F)nc2n1CCCN2c1c(C)cc(C)cc1C` [Example 68, Dipropyl-[2-trifluoromethyl-8-(2,4,6-trimethyl-phenyl)-5,6,7,8-tetrahydro-imidazo[1,2-a]pyrimidin-3-ylmethyl]-amine]: < 1 µM; `CCCCN(C)Cc1c(C(F)(F)F)nc2n1CCCN2c1c(C)cc(C)cc1C` [Example 69, Butyl-methyl-[2-trifluoromethyl-8-(2,4,6-trimethyl-phenyl)-5,6,7,8-tetrahydro-imidazo[1,2-a]pyrimidin-3-ylmethyl]-amine]: < 1 µM. Take `CCCCN(CC)Cc1c(C(F)(F)F)nc2n1CCCN2c1c(C)cc(C)cc1C` [Example 70, Butyl-ethyl-[2-trifluoromethyl-8-(2,4,6-trimethyl-phenyl)-5,6,7,8-tetrahydro-imidazo[1,2-a]pyrimidin-3-ylmethyl]-amine]: the Ki is < 1 µM. For `C=C(C)CN(CC)Cc1c(C(F)(F)F)nc2n1CCCN2c1c(C)cc(C)cc1C` [Example 71, Ethyl-(2-methyl-allyl)-[2-trifluoromethyl-8-(2,4,6-trimethyl-phenyl)-5,6,7,8-tetrahydro-imidazo[1,2-a]pyrimidin-3-ylmethyl]-amine], the Ki was < 0.1 µM. `Cc1cc(C)c(N2CCCn3c2nc(C(F)(F)F)c3CN2CCC(c3ccccc3)C2)c(C)c1` (stereo not shown) [Example 72, 3-(3-Phenyl-pyrrolidin-1-ylmethyl)-2-trifluoromethyl-8-(2,4,6-trimethyl-phenyl)-5,6,7,8-tetrahydro-imidazo[1,2-a]pyrimidine]: the inhibitory constant (Ki) was < 1 µM. Next, `Cc1cc(C)c(N2CCCn3c2nc(C(F)(F)F)c3CN(CC2CC2)CC(F)(F)F)c(C)c1` [Example 73, Cyclopropylmethyl-(2,2,2-trifluoro-ethyl)-[2-trifluoromethyl-8-(2,4,6-trimethyl-phenyl)-5,6,7,8-tetrahydro-imidazo[1,2-a]pyrimidin-3-ylmethyl]-amine]: < 0.01 µM. Consider `Cc1cc(C)c(N2CCCn3c2nc(C(F)(F)F)c3CN(CC2CC2)CC(F)(F)C(F)(F)F)c(C)c1` [Example 74, Cyclopropylmethyl-(2,2,3,3,3-pentafluoro-propyl)-[2trifluoromethyl-8-(2,4,6-trimethyl-phenyl)-5,6,7,8-tetrahydro-imidazo[1,2-a]pyrimidin-3-ylmethyl]-amine], for which the Ki is < 0.1 µM.

As to `CCN(Cc1c(C(F)(F)F)nc2n1CCCN2c1c(C)cc(C)cc1C)CC1CC1` [Example 75, Cyclopropylmethyl-ethyl-[2-trifluoromethyl-8-(2,4,6-trimethyl-phenyl)-5,6,7,8-tetrahydro-imidazo[1,2-a]pyrimidin-3-ylmethyl]-amine], the Ki is < 0.1 µM. Next, `Cc1cc(C)c(N2CCCn3c2nc(C(F)(F)F)c3CN(CC2CCC2)CC(F)(F)F)c(C)c1` [Example 76, Cyclobutylmethyl-(2,2,2-trifluoro-ethyl)-[2-trifluoromethyl-8-(2,4,6-trimethyl-phenyl)-5,6,7,8-tetrahydro-imidazo[1,2-a]pyrimidin-3-ylmethyl]-amine]: < 0.1 µM; `CCCN(Cc1c(C(F)(F)F)nc2n1CCCN2c1c(C)cc(C)cc1C)CC1CCC1` [Example 77, Cyclobutylmethyl-propyl-[2-trifluoromethyl-8-(2,4,6-trimethyl-phenyl)-5,6,7,8-tetrahydro-imidazo[1,2-a]pyrimidin-3-ylmethyl]-amine]: < 0.1 µM.

Values taken from patent US7125990B2, “Imidazolyl derivatives as corticotropin releasing factor inhibitors” (Bristol-Myers Squibb COmpany, priority 2001, dated 2006).
